# Assay results published in patent US20120328631A1, “EP1 INHIBITION” (UNIVERSITY OF ROCHESTER, priority 2010, published 2012).
# Key:
# Assay type in all cases: cell-based, mouse
# [1] = tested on: fibronectin; test: Fibronectin expression in bone marrow cells (Western blotting, real-time PCR)
# Procedure: Bone marrow cells were collected from 10-week-old EP1^−/− and wild-type mice and treated with 3 μM PGE2 for 24 hours before harvest. Total protein was extracted from the cultured cells at day 17 and RNA was extracted at days 10, 12, 14, 17 and 21 after culture. Western blotting (FIG. 10A) and real-time PCR (FIG. 10B) were performed to examine the expression levels of fibronectin. […] Statistical comparisons were performed using 2-way ANOVA followed by Dunnett's test. a=P<0.05 vs. wild-type, b=P<0.05 vs. control, c=P<0.05 vs. PGE2.
# (§1) Relative RNA levels of EP1 and fibronectin were determined by real-time PCR (FIGS. 11A and 11B). Immunohistochemistry was performed using mouse fibronectin primary antibody on the femur fracture tissue samples collected from 10-week-old EP1^−/− and wild-type mice at 3 and 7 days post-fracture (FIG. 11C). Statistical comparisons were performed using 2-way ANOVA followed by Student's t-test. a=P<0.05 vs. wild-type, b=P<0.05 vs. control, c=P<0.05 vs. PGE2.
# (§2) Mice were sacrificed post fracture at 3, 7, 10, 14, 21 and 28 days (N=4). Fracture callus tissue samples were carefully dissected from soft tissue and homogenized using the TissueLyzer (Qiagen; Valencia, Calif.). Total RNA was then extracted from homogenized samples by the RNeasy Fibrous Tissue Midi Kit (Qiagen) according to the manufacturer's instructions. One microgram aliquots of RNA were reverse transcribed into cDNA using the iScript cDNA Synthesis Kit (Bio-Rad; Hercules, Calif.). Real-time […] was performed using the Rotor Gene 6000 real-time DNA amplification system (Qiagen) according to the manufacturer's instruction. […]
# Bone marrow cells were washed with cold phosphate-buffered saline (PBS) three times and lysed on ice in Golden Lysis Buffer (GLB) for 30 minutes as previously described (Li et al., Exp. Cell Res. 300:159-69 (2004)). […] The immune complexes were detected using NBT/BCIP substrate (Pierce Biotechnology).
# [2] = tested on: EP2 and EP4 receptors; test: cAMP-Glo Assay in bone marrow cell cultures; design: dose or concentration left out as unconfirmed; conditions: bone marrow cell cultures from wild type and EP1−/− mice
# Procedure: Bone marrow cells were isolated from 10-week-old EP1^−/− mice and wild-type mice. After culturing for 7 days, cells were treated with PGE2 ([…]) or vehicle for 24 hours. […] The representative photomicrographs are shown at 200× original magnification. Statistical comparisons were performed using Student's T-test. “a” indicates p<0.05 compared to wild-type, “b” indicates p<0.05 compared to EP1^−/−. β-actin served as the loading control.
# (§3) Bone marrow cells were isolated from 10-week-old EP1^−/− and C57BL/6J mice. Cells were cultured in 2 ml α-MEM containing 10% FBS at 5×10^6 cells/well in 6-well plates. After being cultured for 7 days, the medium was replaced with media containing beta-glycerophosphate and ascorbic acid, and the media was changed every two days thereafter. Cells were harvested on day 10, 12, 14, 17 and 21 after plating for alkaline phosphatase and alizarin red staining, and mRNA analysis by quantitative real-time PCR. Cell proliferation was examined using the Cell Proliferation ELISA BrdU (colorimetric) immunoassay kit (Roche; Indianapolis, Ind.) according to the manufacturer's instructions. Cell viability was examined using the CellTiter-Blue Cell Viability Assay (Promega; Madison, Wis.) according to the manufacturer's instructions. Intracellular cAMP activity in bone marrow cells was examined using the cAMP-Glo Assay (Promega) according to the manufacturer's instructions.
# [3] = tested on: primary bone marrow stromal cells; test: Bone nodule formation / mineralization (Alizarin red staining) in bone marrow cell cultures
# Procedure: (§4) An EP1 expression vector was transfected into the EP1^−/− bone marrow cells by electroporation. […] Bone marrow progenitor cells at day 12 after culture were treated with SC19220 (10 μm) for 30 minutes followed by treatment with PGE2 (3 μm). After 24 hours, cells were stained with Alizarin red (FIGS. 12C and 12D). RNA extracted from the cultures was examined for osteocalcin expression (FIG. 12E). Statistical comparisons were performed using Student's t-test. a=P<0.05 vs. control, b=P<0.05 vs. PGE2.
# Increasing concentrations of fibronectin were added to bone marrow cell cultures at day 12. 24 hours later, cells were stained with Alizarin Red (FIGS. 13A and 138) or harvested for real-time PCR (FIG. 13B). Statistical comparisons were performed using Student's t-test, a=P<0.05 vs. control.
# as §3
# [4] = tested on: osteocalcin; test: Osteocalcin expression by real-time PCR in bone marrow cell cultures; conditions: cultures treated with SC19220 and PGE2, RNA
# Procedure: as §4
# as §3, with “Intracellular cAMP activity in bone marrow cells was examined using the cAMP-Glo Assay (Promega) according to the manufacturer's instructions.” left out
# [5] = tested on: EP1 mRNA; test: siRNA knock down of EP1 expression in primary bone marrow stromal cells (real-time PCR); conditions: primary bone marrow stromal cells transfected with EP1 siRNA
# Procedure: as §1, §2
# To further confirm regulation of fibronectin by the PGE2-EP1 signaling pathway, siRNA as described above was used to knock down EP1 expression in primary bone marrow stromal cells. […] Fibronectin expression levels were examined by quantitative real-time PCR.
compound,measurement,setting,value
CCCCC[C@H](O)/C=C/[C@H]1[C@H](O)CC(=O)[C@@H]1C/C=C\CCCC(=O)O [PGE2],fibronectin expression,"[1]; cells with control siRNA, quantitative real-time PCR",stimulate fibronectin expression
same,expression of fibronectin (protein and mRNA),"[1]; wild-type bone marrow cells compared with EP1−/− cells, 3 μM PGE2 for 24 hours",dramatically increased
same,levels of cAMP,[2],similarly enhanced
"CC(=O)NNC(=O)N1Cc2ccccc2Oc2ccc(Cl)cc21 [SC19220, 8-chloro-dibenz[b,f][1,4]oxazepine-10(11H)-carboxy-(2-acetyl)hydrazide]",bone nodule formation,"[3]; primary bone marrow cell cultures at day 12, SC19220 (10 μm) for 30 minutes, then PGE2 (3 μm), 24 hours, Alizarin red",accelerated bone nodule formation
same,time in culture at which bone nodule formation was induced,"[3]; wild-type cells, 12 day cultures treated with antagonist and PGE2 for 24 hours, untreated cultures typically form nodules following 14 days",≤ 13 days
same,expression level of osteocalcin,[4],increased
EP1 siRNA: siRNA used to knock down EP1 expression; example sequences SEQ ID NO:21 and SEQ ID NO:22 (chain 1 AGCUUGUCGGUAUCAUGGUTT; chain 2 ACUUCUAAGCACACCAGATT; chemistry not given here),decrease of EP1 mRNA,[5],about 40%
same,PGE2-stimulated fibronectin expression,"[1]; cells transfected with EP1 siRNA vs control siRNA, quantitative real-time PCR",inhibited
fibronectin,bone nodule formation,"[3]; wild-type bone marrow cells, 5 μg/ml fibronectin added at day 12, 24 hours, alizarin red",did not alter bone nodule formation
same,mineralization,"[3]; wild-type bone marrow cells, 12.5 μg/ml fibronectin added at day 12, 24 hours, alizarin red",significantly reduced mineralization
same,mineralization,"[3]; wild-type bone marrow cells, 25 μg/ml fibronectin added at day 12, 24 hours, alizarin red",significantly reduced mineralization
